# System: Staphylococcus aureus ATCC 29213
# Experiment: 96-well turbidimetric antibacterial activity assay of HNP1, with or without Lipid II synthesis inhibitors
# Format: cell-based
# Procedure: The antibacterial activity of HNP1 against Staphylococcus aureus ATCC 29213 was carried out in a 96-well turbidimetric assay essentially as described in Ericksen, B., et al., 2005, “Antibacterial activity and specificity of the six human {alpha}-defensins.” Lipid II levels in S. aureus were manipulated by the addition of three different inhibitors of cell wall synthesis: bacitracin (250 μg/ml), D-cycloserine (64 μg/ml) and fosfomycine (250 μg/ml). Bacterial cultures were pretreated with these compounds for 30 min under shaking at 37° C. […] Bacterial growth was monitored for 12 hours and data were analyzed as described.
# To examine whether the observed interaction between HNP1 and Lipid II is functionally relevant in the environment of the membrane, the inventors determined the ability of HNP1 to kill S. aureus with altered levels of Lipid II. Three different inhibitors of cell wall synthesis, fosfomycine, D-cycloserine, and bacitracin, were used to reduce the lipid II levels in S. aureus cells. Bacitracin binds directly to undecaprenyl pyrophosphate, the portion of lipid II that remains in the membrane once GlcNAc-MurNAc is polymerized, and prevents its use in subsequent cycles of lipid II synthesis. Fosfomycine is an inhibitor of MurA, the enzyme responsible for the first step in peptidoglycan synthesis. D-Cycloserine inhibits both alanine racemase and D-Ala-D-Ala ligase, two enzymes required for the synthesis of the D-Ala-D-Ala dipeptide of lipid II. All three inhibitors thus block the synthesis of lipid II (Lunde, C. S., et al., 2009, “Telavancin disrupts the functional integrity of the bacterial membrane through targeted interaction with the cell wall precursor lipid II,” Antimicrob Agents Chemother 53:3375-3383.) S. aureus cells were exposed to each of the Lipid II synthesis inhibitors for 30 min and subsequently exposed to HNP1 at concentrations ranging from 256 to 1 μg/ml for 15 min (FIG. 4).
# Survival curves of S. aureus ATCC 29213 exposed to HNP1 at concentrations varying two-fold from 1 to 256 μg/ml. […] Points scored as zero survival could not be plotted.
substance,measurement,setting,value
"HNP1: α-defensin Human Neutrophil Peptide 1, chemically synthesized and folded",killing of S. aureus,15 min exposure to HNP1,efficiently killed S. aureus
same,"killing of S. aureus by HNP-1 after pre-treatment with Lipid II synthesis inhibitors, 2 hours exposure","HNP-1 exposure 2 hours, data not shown",no difference in bacterial killing
same,killing of S. aureus by HNP1 after pre-treatment with Lipid II synthesis inhibitors,"fosfomycine, D-cycloserine, bacitracin 30 min pre-treatment, HNP1 15 min",attenuated killing of S. aureus by HNP1 markedly
